From patent US20180000085A1, “USE OF PICOLINAMIDE COMPOUNDS WITH FUNGICIDAL ACTIVITY” (DOW AGROSCIENCES LLC, priority 2014, published 2018)

Key:
[1] = system: Zymoseptoria tritici; assay: Leaf blotch of wheat (SEPTTR) disease control on wheat seedlings; format: in vivo; set-up: key to SEPTTR 1DP, HV activity at 100 ppm (% control rating) / SEPTTR 3DC, HV activity at 100 ppm (% control rating) / SEPTTR disease control, 1DP / SEPTTR disease control, 3DC / SEPTTR 1DP disease control rating, HV activity / SEPTTR 3DC disease control rating, HV activity / SEPTTR 3DC, LV activity at 125.1 g/H (% Control rating) / SEPTTR 1DP, LV activity at 125.1 g/H (% Control rating) / SEPTTR 1DP disease control rating, LV activity at 125.1 g/H / SEPTTR 3DC disease control rating, LV activity at 125.1 g/H / SEPTTR 3DC disease control rating, HV activity at 100 ppm / SEPTTR 1DP disease control rating, HV activity at 100 ppm / HV activity at 100 ppm SEPTTR 3DC (disease control rating) / HV activity at 100 ppm SEPTTR 1DP (disease control rating) / LV activity at 125.1 g/H SEPTTR 1DP (disease control rating) / LV activity at 125.1 g/H SEPTTR 3DC (disease control rating): A: > 80; B: ≤ 80; C: Not Tested; D: No Activity Observed in the Reported Assay; conditions: for SEPTTR 1DP, LV activity at 125.1 g/H (% Control rating) / SEPTTR 3DC, LV activity at 125.1 g/H (% Control rating): low volume application; for SEPTTR 1DP disease control rating, HV activity at 100 ppm / SEPTTR 3DC disease control rating, HV activity at 100 ppm: high volume application; for SEPTTR 1DP disease control rating, HV activity at 100 ppm: 1 day protectant; for SEPTTR 3DC disease control rating, HV activity at 100 ppm: 3 day curative
Procedure: (§1) All fungicides were evaluated using the aforementioned method for their activity vs. all target diseases, unless stated otherwise. Wheat leaf blotch and brown rust activity were also evaluated using track spray applications, in which case the fungicides were formulated as EC formulations, containing 0.1% Trycol 5941 in the spray solutions. Wheat plants (variety Yuma) were grown from seed in a greenhouse in 50% mineral soil/50% soil-less Metro mix until the first leaf was fully emerged, with 7-10 seedlings per pot. These plants were inoculated with an aqueous spore suspension of Zymoseptoria tritici either prior to or after fungicide treatments. After inoculation the plants were kept in 100% relative humidity (one day in a dark dew chamber followed by two to three days in a lighted dew chamber at 20° C.) to permit spores to germinate and infect the leaf. The plants were then transferred to a greenhouse set at 20° C. for disease to develop. When disease symptoms were fully expressed on the 1st leaves of untreated plants, infection levels were assessed on a scale of 0 to 100 percent disease severity. Percent disease control was calculated using the ratio of disease severity on treated plants relative to untreated plants.

[2] = system: Puccinia triticina; assay: Wheat brown rust (PUCCRT) disease control on wheat seedlings; format: in vivo; set-up: key to PUCCRT 3DC, HV activity at 100 ppm (% control rating) / PUCCRT disease control, 3DC / PUCCRT 1DP disease control rating, HV activity / PUCCRT 3DC disease control rating, HV activity / PUCCRT 3DC, LV activity at 125.1 g/H (% Control rating) / PUCCRT 1DP, LV activity at 125.1 g/H (% Control rating) / PUCCRT 3DC disease control rating, LV activity at 125.1 g/H / PUCCRT 1DP disease control rating, LV activity at 125.1 g/H / PUCCRT 3DC disease control rating, HV activity at 100 ppm / PUCCRT 1DP disease control rating, HV activity at 100 ppm / HV activity at 100 ppm PUCCRT 3DC (disease control rating) / LV activity at 125.1 g/H PUCCRT 1DP (disease control rating) / LV activity at 125.1 g/H PUCCRT 3DC (disease control rating): A: > 80; B: ≤ 80; C: Not Tested; D: No Activity Observed in the Reported Assay; conditions: for PUCCRT 1DP, LV activity at 125.1 g/H (% Control rating) / PUCCRT 3DC, LV activity at 125.1 g/H (% Control rating): low volume application; for PUCCRT 1DP disease control rating, HV activity at 100 ppm / PUCCRT 3DC disease control rating, HV activity at 100 ppm: high volume application; for PUCCRT 1DP disease control rating, HV activity at 100 ppm: 1 day protectant; for PUCCRT 3DC disease control rating, HV activity at 100 ppm: 3 day curative
Procedure: as §1, with “plants. Example B: Evaluation of Fungicidal Activity: Wheat Brown Rust (Puccinia triticina; Synonym: Puccinia recondita f. sp. Tritici; Bayer Code PUCCRT) Wheat plants (variety Yuma) were grown from seed in a greenhouse in 50% mineral soil/50% soil-less Metro mix until the first leaf was fully emerged, with 7-10 seedlings per pot. These plants were inoculated with an aqueous spore suspension of Puccinia triticina either prior to or after fungicide treatments. […] The plants were then transferred to a greenhouse set at 24° C. for disease to develop. Fungicide formulation, application and disease assessment followed the procedures as described in the Example A.” for “plants.”

[3] = HV application, 100 ppm, 1 Day Protectant
[4] = HV application, 100 ppm, 3 Day Curative

Row | Compound | SEPTTR 1DP, LV activity at 125.1 g/H (% Control rating) ([1]; 1 Day Protectant) | SEPTTR 3DC, LV activity at 125.1 g/H (% Control rating) ([1]; 3 Day Curative) | PUCCRT 1DP, LV activity at 125.1 g/H (% Control rating) ([2]; 1 Day Protectant) | PUCCRT 3DC, LV activity at 125.1 g/H (% Control rating) ([2]; 3 Day Curative) | SEPTTR 1DP disease control rating, HV activity at 100 ppm ([1]; 100 ppm) | SEPTTR 3DC disease control rating, HV activity at 100 ppm ([1]; 100 ppm) | PUCCRT 1DP disease control rating, HV activity at 100 ppm ([2]; 100 ppm) | PUCCRT 3DC disease control rating, HV activity at 100 ppm ([2]; 100 ppm) | also measured
1 | CC[C@H](Cc1ccc(OC)cc1)[C@@H](Oc1ccccc1)[C@H](C)OC(=O)[C@H](C)NC(=O)c1nccc(OC)c1OCOC(C)=O [Cmpd 470] | A (> 80) | A (> 80) | A (> 80) | A (> 80) |  |  |  |  | 
2 | CCC[C@@H](Oc1ccc(C)cc1Cl)[C@H](C)OC(=O)[C@H](C)NC(=O)c1nccc(OC)c1O [Cmpd 999] |  |  |  |  | B (≤ 80) | B (≤ 80) | A (> 80) | A (> 80) | 
3 | CCC(CC)[C@@H](Oc1ccc(C(F)(F)F)cc1)[C@H](C)OC(=O)[C@H](C)NC(=O)c1nccc(OC)c1OC(C)=O [Cmpd 605] | A (> 80) | B (≤ 80) | A (> 80) | B (≤ 80) |  |  |  |  | 
4 | CCC(CC)[C@@H](Oc1cccc(F)c1)[C@H](C)OC(=O)[C@@H](NC(=O)c1nccc(OC)c1OCOC(C)=O)C(C)C [Cmpd 645] | D | A (> 80) | A (> 80) | A (> 80) |  |  |  |  | SEPTTR 1DP, HV activity at 100 ppm (% control rating) [1, 3]: A (> 80); SEPTTR 3DC, HV activity at 100 ppm (% control rating) [1, 4]: A (> 80); PUCCRT 1DP, HV activity at 100 ppm (% control rating) [2, 3]: A (> 80); PUCCRT 3DC, HV activity at 100 ppm (% control rating) [2, 4]: A (> 80)
5 | COc1ccnc(C(=O)N[C@@H](C)C(=O)O[C@@H](C)[C@H](Oc2cccc(Cl)c2)C2CC2)c1O [Cmpd 1009] |  |  |  |  | A (> 80) | A (> 80) | A (> 80) | A (> 80) | 
6 | CCC(CC)C(Oc1cccc(F)c1)C(C)OC(=O)C(CC(C)C)NC(=O)c1nccc(OC)c1O (stereo not shown) [Cmpd 426] |  |  |  |  |  |  |  |  | SEPTTR 1DP disease control rating, HV activity ([1]; HV application at 100 ppm, 1 Day Protectant, wheat leaf blotch): D; SEPTTR 3DC disease control rating, HV activity ([1]; HV application at 100 ppm, 3 Day Curative, wheat leaf blotch): D; PUCCRT 1DP disease control rating, HV activity ([2]; HV application at 100 ppm, 1 Day Protectant, wheat brown rust): B (≤ 80); PUCCRT 3DC disease control rating, HV activity ([2]; HV application at 100 ppm, 3 Day Curative, wheat brown rust): D
7 | COc1ccnc(C(=O)NC(C)C(=O)OC(C)COC2CCCC2)c1OCOC(C)=O (stereo not shown) [Cmpd 534] | D | A (> 80) | D | A (> 80) |  |  |  |  | 
8 | COc1ccnc(C(=O)N[C@@H](C)C(=O)O[C@@H](C)[C@H](Oc2ccc(Cl)cc2)C2CCCC2)c1O [Cmpd 842] |  |  |  |  | A (> 80) | B (≤ 80) | A (> 80) | A (> 80) | 
9 | CC(NC(=O)c1nccc(Br)c1O)C(=O)OC(C)C(Oc1ccccc1)C(C)C (stereo not shown) [Cmpd 1025] |  |  |  |  | D | B (≤ 80) | A (> 80) | B (≤ 80) | 
